# Measured values taken from patent US10913738B2 (BRISTOL-MYERS SQUIBB COMPANY, priority 2017, dated 2021).
# pIC50: −log10 of the molar value. Like-named read-outs stand apart in the source and are kept apart here.
# Columns and labels:
# [1] = tested on: MLKL phosphorylation in HT29-L23 human colorectal adenocarcinoma cells; assay: MLKL Phosphorylation High-Content Assay; assay type: cell-based; conditions: Homo sapiens
# Method in brief: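 IC50 and Ymax obtained by 4-parameter logistic fitting of MLKL phosphorylation, measured as mean circ-ring average intensity ratio from high-content images. Staining used an anti-phospho-S358 MLKL antibody overnight at 4° C., following six-hour cell incubation at 37° C.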
# [2] = biological target: T1, His-GST-TVMV-hRIPK1(1-324) (Homo sapiens, UniProt Q13546); assay: RIPK1 HTRF Binding Assay
# T1 construct: The coding region of human RIPK1(1-324) flanked by NdeI site at 5′ end; made in house; host or cells: Spodoptera frugiperda (Sf9) insect cells, baculovirus
# T1 sequence (Q13546 1-324): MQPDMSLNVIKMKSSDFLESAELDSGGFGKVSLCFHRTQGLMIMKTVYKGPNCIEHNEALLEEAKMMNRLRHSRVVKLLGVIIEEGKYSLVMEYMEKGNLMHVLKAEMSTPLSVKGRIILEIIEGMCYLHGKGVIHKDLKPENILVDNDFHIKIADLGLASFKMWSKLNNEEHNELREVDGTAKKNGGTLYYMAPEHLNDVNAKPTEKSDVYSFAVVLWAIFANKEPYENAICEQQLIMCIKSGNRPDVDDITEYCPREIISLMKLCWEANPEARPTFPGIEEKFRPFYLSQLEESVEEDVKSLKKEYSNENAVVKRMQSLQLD
# [3] = x marks IC50 class 20-200 nM, read-out: pMLKL cell activity 20-200 nM
# [4] = x marks IC50 class <20 nM, read-out: RIPK1 HTRF binding <20 nM
# [5] = x marks IC50 class <20 nM, read-out: pMLKL cell activity <20 nM
# [6] = x marks IC50 class 20-200 nM, read-out: RIPK1 HTRF binding 20-200 nM
# [7] = x marks IC50 class >200 nM, read-out: pMLKL cell activity >200 nM
Compound,"pIC50 [1, 3]","pIC50 [2, 4]","pIC50 [1, 5]","pIC50 [2, 6]","pIC50 [1, 7]"
"Cc1nc(C)c(-c2ccn3nc(N)nc3c2)cc1C(=O)NCc1c(F)cc(F)cc1OCC1CCCC1 [Example 177, 5-{2-amino-[1,2,4]triazolo[1,5-a]pyridin-7-yl}-N-{[2-(cyclopentylmethoxy)-4,6-difluorophenyl]methyl}-2,6-dimethylpyridine-3-carboxamide]",6.70 to 7.70,> 7.70,–,–,–
"Cc1nc(C)c(-c2ccn3nc(N)nc3c2)cc1C(=O)NCc1c(F)cccc1OCC1CCCC1 [Example 180, 5-12-amino-[1,2,4]triazolo[1,5-a]pyridin-7-yl}-N-{[2-(cyclopentylmethoxy)-6-fluorophenyllmethyl}-2,6-dimethylpyridine-3-carboxamide]",6.70 to 7.70,> 7.70,–,–,–
"Cc1nc(C)c(-c2ccn3nc(N)nc3c2)cc1C(=O)NCc1cc(OC(F)(F)F)ccc1F [Example 181, 5-{2-amino-[1,2,4]triazolo[1,5-a]pyridin-7-yl}-N-{[2-fluoro-5-(trifluoromethoxy)phenyl]methyl}-2,6-dimethylpyridine-3-carboxamide]",–,> 7.70,> 7.70,–,–
"Cc1nc(C)c(-c2ccn3nc(N)nc3c2)cc1C(=O)NCc1ncccc1OCC1CCCC1 [Example 182, 5-{2-amino-[1,2,4]triazolo[1,5-a]pyridin-7-yl}-N-{[3-(cyclopentylmethoxy)pyridin-2-yl]methyl}-2,6-dimethylpyridine-3-carboxamide]",6.70 to 7.70,> 7.70,–,–,–
Cc1nc(C)c(-c2ccn3nc(N)nc3c2)cc1C(=O)NCc1cccnc1OCC1CCCC1 [Example 183],6.70 to 7.70,–,–,6.70 to 7.70,–
"Cc1nc(C)c(-c2ccn3nc(N)nc3c2)cc1C(=O)NCc1cc(F)cc(F)c1OCC1CC1 [Example 184, 5-{2-amino-[1,2,4]triazolo[1,5-a]pyridin-7-yl}-N-{[2-(cyclopropylmethoxy)-3,5-difluorophenyl]methyl}-2,6-dimethylpyridine-3-carboxamide]",–,> 7.70,> 7.70,–,–
"Cc1nc(C)c(-c2ccn3nc(N)nc3c2)cc1C(=O)NCc1ccccc1OCC1CC1 [Example 185, 5-{2-amino-[1,2,4]triazolo[1,5-a]pyridin-7-yl}-N-{[2-(cyclopropylmethoxy)phenyl]methyl}-2,6-dimethylpyridine-3-carboxamide]",–,> 7.70,> 7.70,–,–
"Cc1nc(C)c(-c2ccn3nc(N)nc3c2)cc1C(=O)NCc1ccccc1OCC1CCCC1 [Example 186, 5-{2-amino-[1,2,4]triazolo[1,5-a]pyridin-7-yl}-N-{[2-(cyclopentylmethoxy)phenyl]methyl}-2,6-dimethylpyridine-3-carboxamide]",6.70 to 7.70,> 7.70,–,–,–
"Cc1nc(C)c(-c2ccn3nc(N)nc3c2)cc1C(=O)NCc1cccnc1OCC1CCC1 [Example 187, 5-{2-amino-[1,2,4]triazolo[1,5-a]pyridin-7-yl}-N-{[2-(cyclobutylmethoxy)pyridin-3-yl]methyl}-2,6-dimethylpyridine-3-carboxamide]",6.70 to 7.70,–,–,6.70 to 7.70,–
"Cc1nc(C)c(-c2ccn3nc(N)nc3c2)cc1C(=O)NCc1cc(F)cc(F)c1OCC1CCCC1 [Example 188, 5-{2-amino-[1,2,4]triazolo[1,5-a]pyridin-7-yl}-N-{[2-(cyclopentylmethoxy)-3,5-difluorophenyl]methyl}-2,6-dimethylpyridine-3-carboxamide]",–,> 7.70,> 7.70,–,–
"Cc1nc(C)c(-c2ccn3nc(N)nc3c2)cc1C(=O)NCc1cccc(OC(F)(F)F)c1 [Example 189, 5-{2-amino-[1,2,4]triazolo[1,5-a]pyridin-7-yl}-2,6-dimethyl-N-{[3-(trifluoromethoxy)phenyl]methyl}pyridine-3-carboxamide]",6.70 to 7.70,–,–,6.70 to 7.70,–
"Cc1nc(C)c(-c2ccn3nc(N)nc3c2)cc1C(=O)NCc1cc(F)ccc1OCC1CCCC1 [Example 190, 5-{2-amino-[1,2,4]triazolo[1,5-a]pyridin-7-yl}-N-{[2-(cyclopentylmethoxy)-5-fluorophenyl]methyl}-2,6-dimethylpyridine-3-carboxamide]",–,> 7.70,> 7.70,–,–
[2H]C([2H])(NC(=O)c1cc(-c2ccn3nc(N)nc3c2)c(C)nc1C)c1cc(OC(F)(F)F)ccc1F [Example 191],–,> 7.70,> 7.70,–,–
"Cc1nc(C)c(-c2ccn3nc(N)nc3c2)cc1C(=O)NCc1cc(C(F)(F)F)ccc1F [Example 192, 5-{2-amino-[1,2,4]triazolo[1,5-a]pyridin-7-yl}-N-{[2-fluoro-5-(trifluoromethyl)phenyl]methyl}-2,6-dimethylpyridine-3-carboxamide]",–,> 7.70,> 7.70,–,–
"COc1nc(C)c(-c2ccn3nc(N)nc3c2)cc1C(=O)NCCc1ccccc1OC(F)(F)F [Example 194, 5-{2-amino-[1,2,4]triazolo[1,5-a]pyridin-7-yl}-2-methoxy-6-methyl-N-{2-[2-(trifluoromethoxy)phenyl]ethyl}pyridine-3-carboxamide]",–,–,–,6.70 to 7.70,< 6.70
"COc1nc(C)c(-c2ccn3nc(N)nc3c2)cc1C(=O)NCc1ccccc1OC1CCOCC1 [Example 195, 5-{2-amino-[1,2,4]triazolo[1,5-a]pyridin-7-yl}-2-methoxy-6-methyl-N-{[2-(oxan-4-yloxy)phenyl]methyl}pyridine-3-carboxamide]",–,> 7.70,> 7.70,–,–
"COc1nc(C)c(-c2ccn3nc(N)nc3c2)cc1C(=O)NCc1cc(F)cc(C(F)(F)F)c1 [Example 196, 5-{2-amino-[1,2,4]triazolo[1,5-a]pyridin-7-yl}-N-{[3-fluoro-5-(trifluoromethyl)phenyl]methyl}-2-methoxy-6-methylpyridine-3-carboxamide]",–,–,–,6.70 to 7.70,< 6.70
"COc1nc(C)c(-c2ccn3nc(N)nc3c2)cc1C(=O)NCc1cc(C(F)(F)F)ccc1F [Example 197, 5-{2-amino-[1,2,4]triazolo[1,5-a]pyridin-7-yl}-N-{[2-fluoro-5-(trifluoromethyl)phenyl]methyl}-2-methoxy-6-methylpyridine-3-carboxamide]",6.70 to 7.70,> 7.70,–,–,–
"COc1nc(C)c(-c2ccn3nc(N)nc3c2)cc1C(=O)NCCc1cccc(OC(F)(F)F)c1 [Example 198, 5-{2-amino-[1,2,4]triazolo[1,5-a]pyridin-7-yl}-2-methoxy-6-methyl-N-{2-[3-(trifluoromethoxy)phenyl]ethyl}pyridine-3-carboxamide]",–,–,–,6.70 to 7.70,< 6.70
"COc1nc(C)c(-c2ccn3nc(N)nc3c2)cc1C(=O)NCc1cccc(C(F)(F)F)c1 [Example 199, 5-{2-amino-[1,2,4]triazolo[1,5-a]pyridin-7-yl}-2-methoxy-6-methyl-N-{[3-(trifluoromethyl)phenyl]methyl}pyridine-3-carboxamide]",–,–,–,6.70 to 7.70,< 6.70
"COc1nc(C)c(-c2ccn3nc(N)nc3c2)cc1C(=O)NCc1cccc(OCC2CC2)c1 [Example 200, 5-{2-amino-[1,2,4]triazolo[1,5-a]pyridin-7-yl}-N-{[3-(cyclopropylmethoxy)phenyl]methyl}-2-methoxy-6-methylpyridine-3-carboxamide]",6.70 to 7.70,–,–,6.70 to 7.70,–
"COc1nc(C)c(-c2ccn3nc(N)nc3c2)cc1C(=O)NCc1cc(OC(F)(F)F)ccc1F [Example 201, 5-{2-amino-[1,2,4]triazolo[1,5-a]pyridin-7-yl}-N-{[2-fluoro-5-(trifluoromethoxy)phenyl]methyl}-2-methoxy-6-methylpyridine-3-carboxamide]",6.70 to 7.70,> 7.70,–,–,–
"COc1nc(C)c(-c2ccn3nc(N)nc3c2)cc1C(=O)NCc1c(F)cc(F)cc1OCC1CCCC1 [Example 202, 5-{2-amino-[1,2,4]triazolo[1,5-a]pyridin-7-yl}-N-{[2-(cyclopentylmethoxy)-4,6-difluorophenyl]methyl}-2-methoxy-6-methylpyridine-3-carboxamide]",6.70 to 7.70,> 7.70,–,–,–
"COc1nc(C)c(-c2ccn3nc(N)nc3c2)cc1C(=O)NCc1ncccc1OCC1CCCC1 [Example 203, 5-{2-amino-[1,2,4]triazolo[1,5-a]pyridine-7-yl}-N-{[3-(cyclopentylmethoxy)pyridin-2-yl]methyl}-2-methoxy-6-methylpyridine-3-carboxamide]",6.70 to 7.70,> 7.70,–,–,–
"COc1nc(C)c(-c2ccn3nc(N)nc3c2)cc1C(=O)NCc1cccc(OC(F)F)c1 [Example 204, 5-{2-amino-[1,2,4]triazolo[1,5-a]pyridin-7-yl}-N-{[3-(difluoromethoxy)phenyl]methyl}-2-methoxy-6-methylpyridine-3-carboxamide]",–,–,–,6.70 to 7.70,< 6.70
"COc1nc(C)c(-c2ccn3nc(N)nc3c2)cc1C(=O)NC(C)c1ccccc1OC(F)(F)F (stereo not shown) [Example 205, 5-{2-amino-[1,2,4]triazolo[1,5-a]pyridin-7-yl}-2-methoxy-6-methyl-N-{1-[2-(trifluoromethoxy)phenyl]ethyl}pyridine-3-carboxamide]",–,> 7.70,> 7.70,–,–
